What was measured:
[1] = tested on: MCF-7 breast cancer cell line; assay: MTT anti-proliferative assay, MCF-7; format: cell-based; settings: Homo sapiens, MCF7, 48 h, mean ± S.E.M.
Protocol: (§1) Toward this aim, the cells were treated with the synthesized compounds at different concentrations and were incubated for 48 h. In our evaluations, staurosporine (STU) was used as a reference drug. After the cells were washed, they were treated with MTT solution, and an ELISA reader assessed the absorption of the solution at a wavelength of 570 nm.
(§2) Finally, the resulting MTT crystals were dissolved at ambient temperature in acidified isopropanol (180 µL/well) with shaking, and the absorption was assessed at 570 nm utilizing ELISA.

[2] = tested on: MDA-MB-231 breast cancer cell line; assay: MTT anti-proliferative assay, MDA-MB-231; format: cell-based; settings: mean ± S.E.M.
Protocol: as §1, §2

human VEGFR-2/KDR = human VEGFR-2/KDR (Homo sapiens, UniProt P35968); assay: VEGFR-2 inhibitory activity (VEGFR-2/KDR ELISA kit)
Protocol: In our experiments, we used Sorafenib as a positive control drug reference. The activity of compounds was assessed at different concentrations, and the IC50 values were determined.

[3] = tested on: epithelial breast cell line MCF-10A; assay: MTT cytotoxicity assay, epithelial breast cells MCF-10A; format: cell-based; settings: Homo sapiens, 48 h, mean ± S.E.M.
Protocol: as §1, §2

MCF-7 cells [4] = assay: Cell cycle analysis by flow cytometry (propidium iodide); format: cell-based; settings: MCF-7, 5.73 µM, 24 h
Protocol: Based on the anti-proliferative activity results, we selected compound 4 to further explore and achieve insights into the mechanism responsible for the cytotoxicity of this class of compounds. Toward this aim, we assessed the effect of compound 4 on the cell cycle distribution of MCF-7 cells utilizing flow cytometry analysis. The cell cycle distribution analysis was evaluated after incubation of MCF-7 cells with compound 4 at 5.73 µM. […] Further, compound 4 induced a substantial diminution in the cellular population at the G2/M stage. As indicated in Figure 5a–c, the cellular populations of the G2/M and pre-G1 phases in the control cells were 16.99% and 2.12%, respectively, while the populations were altered to 6.81% and 31.66%, respectively, in the presence of compound 4 at 5.73 µM.
To assess the effect of compound 4 on the cell cycle of MCF-7 cells, we treated the MCF-7 cells with compound 4 and analyzed the cell cycle arrest at different stages as previously reported. […] After the cells were incubated with propidium iodide (5 mg/mL, Sigma, Ronkonkoma, NY, USA) and Rnase (10 mg/mL, Sigma, Ronkonkoma, NY, USA), cytofluorometry analysis was performed using FACS Calibur cytometer, and the results were analyzed utilizing Cell quest software (BD Bioscience, San Jose, CA, USA).

MCF-7 cells [5] = assay: Annexin V-FITC/PI dual staining (apoptosis and necrosis); format: cell-based; settings: MCF-7, 5.73 µM, 24 h
Protocol: Our findings encouraged us to further explore the mechanistic insights accounting for the potent cytotoxicity and cell cycle arrest. To investigate whether the mode of action for the antiproliferative activity of compound 4 toward MCF-7 cells involves apoptosis and/or necrosis, we performed Annexin V- FITC/PI dual staining assay. To this end, we treated MCF-7 cells with compound 4 (5.73 µM) for 24h and assessed the programmed cell death at different stages utilizing the cytofluorometry analysis. […] Indeed, treatment with compound 4 increased apoptosis by 9 and 89 times at the early and late stages, respectively, compared to control cells.
To explore the effect of compound 4 on the programmed cell death mechanisms of MCF-7 cells, fluorescent Annexin V-FITC/ PI assay was performed using flow cytometry following a previously reported procedure. Briefly, MCF-7 cells (2 × 10^5) were treated with compound 4 at 5.73 µM concentration. After incubation for 24 h, the harvested cells were stained in the dark at 37 °C with Annexin V-FITC/ PI dye for 15 min. Cytofluorometry analysis was assessed by BD FACS Calibur (Becton and Dickinson, Heidelberg, Germany), and the BD cell Quest pro software was utilized to analyze the results.

Chain of human VEGFR-2/KDR (P35968 20-1356): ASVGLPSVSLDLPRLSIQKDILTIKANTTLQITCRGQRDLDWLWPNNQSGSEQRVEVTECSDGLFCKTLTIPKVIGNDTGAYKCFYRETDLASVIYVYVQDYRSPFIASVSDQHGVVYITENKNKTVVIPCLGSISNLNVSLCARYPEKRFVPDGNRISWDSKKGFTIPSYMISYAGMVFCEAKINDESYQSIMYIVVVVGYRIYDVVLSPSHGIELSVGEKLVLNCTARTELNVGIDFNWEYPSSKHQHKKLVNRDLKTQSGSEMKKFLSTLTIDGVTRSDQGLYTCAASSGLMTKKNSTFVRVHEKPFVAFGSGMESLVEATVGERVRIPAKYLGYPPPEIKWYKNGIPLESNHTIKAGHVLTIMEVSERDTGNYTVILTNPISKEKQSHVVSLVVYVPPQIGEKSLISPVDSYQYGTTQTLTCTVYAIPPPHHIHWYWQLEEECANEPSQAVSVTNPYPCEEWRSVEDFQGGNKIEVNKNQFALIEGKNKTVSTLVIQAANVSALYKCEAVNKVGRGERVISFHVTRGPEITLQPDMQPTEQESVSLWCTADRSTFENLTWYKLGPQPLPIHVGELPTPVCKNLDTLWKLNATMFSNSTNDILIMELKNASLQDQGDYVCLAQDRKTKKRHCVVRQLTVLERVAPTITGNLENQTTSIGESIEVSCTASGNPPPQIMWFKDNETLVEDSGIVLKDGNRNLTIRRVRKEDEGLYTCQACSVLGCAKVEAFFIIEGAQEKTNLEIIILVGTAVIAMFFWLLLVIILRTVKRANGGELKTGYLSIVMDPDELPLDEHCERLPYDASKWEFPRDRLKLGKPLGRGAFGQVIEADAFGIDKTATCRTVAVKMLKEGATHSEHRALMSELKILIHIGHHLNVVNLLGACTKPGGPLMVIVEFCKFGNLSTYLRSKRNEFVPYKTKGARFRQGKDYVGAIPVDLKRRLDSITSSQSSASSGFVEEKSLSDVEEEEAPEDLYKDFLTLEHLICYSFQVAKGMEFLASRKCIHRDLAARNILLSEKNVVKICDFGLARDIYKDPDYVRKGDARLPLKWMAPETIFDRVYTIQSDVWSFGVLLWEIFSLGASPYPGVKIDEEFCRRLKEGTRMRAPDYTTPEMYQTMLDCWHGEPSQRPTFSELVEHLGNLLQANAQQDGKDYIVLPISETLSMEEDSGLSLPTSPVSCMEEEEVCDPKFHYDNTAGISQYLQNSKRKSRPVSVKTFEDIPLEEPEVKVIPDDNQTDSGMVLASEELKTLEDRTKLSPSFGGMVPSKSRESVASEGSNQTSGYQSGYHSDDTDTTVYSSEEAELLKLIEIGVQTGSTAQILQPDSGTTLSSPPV

Row | Structure (SMILES) | IC50 [1] [µM] | IC50 ([2]; Homo sapiens, MDA-MB-231, 48 h) [µM] | melting point [°C] | also measured
1 | Oc1ccc(/C=N/Nc2nc(-c3ccc(Cl)cc3)cs2)cc1 [Compound 3a, (E)-4-((2-(4-(4-Chlorophenyl)thiazol-2-yl)hydrazineylidene)methyl)-phenol] | 24.9 ± 1.9 | 18.7 ± 1.42 | – | –
2 | C/C(=N\Nc1nc(-c2ccc(Cl)cc2)cs1)c1ccc(Br)cc1 [Compound 3b, (E)-2-(2-(1-(4-bromophenyl)ethylidene)hydrazineyl)-4-(4-chlorophenyl)thiazole] | 31.2 ± 2.38 | 36.8 ± 2.81 | 185 | –
3 | C/C(=N\Nc1nc(-c2ccc(Br)cc2)cs1)c1ccccc1O [Compound 3c, (E)-2-(1-(2-(4-(4-Bromophenyl)thiazol-2-yl)hydrazineylidene)ethyl)-phenol] | 13.7 ± 1.04 | 17.1 | – | IC50 ([2]; 48 h): 17.08 ± 0.13 µM; IC50 (human VEGFR-2/KDR): 0.253 ± 0.54 µM
4 | CC(=O)Nc1nc(-c2ccc(Cl)cc2)cs1 [Compound 4, N-(4-(4-Chlorophenyl)-Thiazol-2-yl)Acetamide] | 5.73 ± 0.44 | 12.2 ± 0.93 | – | IC50 [3]: 36.8 ± 5 µM; cellular population in pre-G1 phase (MCF-7 cells [4]; control 2.12%): 31.66%; cellular population in G2/M phase (MCF-7 cells [4]; control 16.99%): 6.81%; increase of apoptosis at the early stage compared to control cells (MCF-7 cells [5]): 9 times; increase of apoptosis at the late stage compared to control cells (MCF-7 cells [5]): 89 times; increase of necrosis compared to control cells (MCF-7 cells [5]): 9 times; necrosis percentage (MCF-7 cells [5]; control 1.26%): 11.77%
5 | C/C(=N\N(c1nc(-c2ccc(Cl)cc2)cs1)C(O)c1ccc(O)cc1)c1ccc(Br)cc1 (stereo not drawn) [Compound 5a, (E)-4-((2-(1-(4-Bromophenyl)ethylidene)-1-(4-(4-chlorophenyl)thiazol-2-yl)hydrazineyl)(hydroxy)methyl)phenol] | 18.6 ± 1.42 | 20.7 ± 1.58 | 155 to 157 | –
6 | COc1cc(C(O)N(/N=C(\C)c2ccc(Br)cc2)c2nc(-c3ccc(Cl)cc3)cs2)ccc1O (stereo not drawn) [Compound 5b, (E)-4-((2-(1-(4-Bromophenyl)ethylidene)-1-(4-(4-chlorophenyl)thiazol-2-yl)hydrazineyl)(hydroxy)methyl)-2-methoxyphenol] | 32.5 ± 2.47 | 62.12 ± 0.47 | 158 to 160 | –
7 | CC(=O)Oc1ccc(C(OC(C)=O)N(/N=C(\C)c2ccc(Br)cc2)c2nc(-c3ccc(Cl)cc3)cs2)cc1 (stereo not drawn) [Compound 6a, (E)-4-(Acetoxy(2-(1-(4-bromophenyl)ethylidene)-1-(4-(4-chlorophenyl)thiazol-2-yl)hydrazineyl)methyl)phenyl acetate] | > 100 | > 100 | 126 to 128 | –
8 | COc1cc(C(OC(C)=O)N(/N=C(\C)c2ccc(Br)cc2)c2nc(-c3ccc(Cl)cc3)cs2)ccc1OC(C)=O (stereo not drawn) [Compound 6b, (E)-4-(Acetoxy(2-(1-(4-bromophenyl)ethylidene)-1-(4-(4-chlorophenyl)thiazol-2-yl)hydrazineyl)methyl)-2-methoxyphenyl acetate] | 43.8 ± 2.04 | 77 ± 1.95 | 126 to 128 | –
